# Measured values: patent publication US20140121732A1, “METHODS AND COMPOSITIONS FOR ADMINISTERING A SPECIFIC WAVELENGTH PHOTOTHERAPY” (Applied Biology, Inc., priority 2011, published 2014)
# Assay: UV absorbance spectrum and derived transmittance profile of photocream applied at 20 μm
# Type: physicochemical
# Excerpt: In one embodiment of the present invention, a band-pass photocream is composed such that it is optimized to have maximum transmittance at a therapeutic wavelength of 311 nm for the treatment of vitiligo, psoriasis, atopic dermatitis, and other skin conditions. Said photocream would contain two UV absorbing active ingredients having UV absorbance spectra that when combined in a determined ratio would have a spectral minimum (valley) at 311 nm. For example, a band-pass photocream could be formulated with silymarin (CAS#22888-70-6) and diethylamino hydroxybenzoyl hexyl benzoate (CAS#302776-68-7) in a weight to weight ratio of 2:3 (or less preferably within the range 1:2 to 5:6, or within the range 5:9 to 7:9) to produce an absorbance spectrum with a spectral valley at 311 nm. Said photocream may contain 0.75% (w/w) silymarin (CAS#22888-70-6) and 1.125% (w/w) diethylamino hydroxybenzoyl hexyl benzoate (CAS#302776-68-7). An illustrative absorbance spectrum for such a composition is shown in FIG. 3 when applied at a thickness of 20 μm. […] Alternatively, a band-pass photocream could be formulated with alpha-glucosyl hesperidin (CAS#161713-86-6) and diethylamino hydroxybenzoyl hexyl benzoate (CAS#302776-68-7) in the weight to weight ratio of 4:1 (or less preferably within the range 3:1 to 5:1, or within the range 7:2 to 9:2) to produce an absorbance spectrum with a spectral valley at 311 nm.
# In yet another embodiment, a combination of UV absorbing molecules may be formulated to selectively pass UVB light in the range 306-310 nm for the benefit of maximum vitamin D production while still providing limited protecting from erythema. Said photocream may contain two UV absorbing active ingredients having UV absorption spectra that when combined in a determined ratio would have a spectral minimum (valley) at 308 nm. […] Said photocream could contain 1% (w/w) silymarin (CAS#22888-70-6) and 2.5% (w/w) diethylamino hydroxybenzoyl hexyl benzoate (CAS#302776-68-7) and would produce an absorbance spectra shown in FIG. 7 when applied at a thickness of 20 μm. […]
row,Compound,UV absorbance (in words)
1,"COc1ccc(C(=O)CC(=O)c2ccc(C(C)(C)C)cc2)cc1 [Avobenzone, avobenzone]",significant absorbance in the UVA
2,"COc1ccc([C@@H]2CC(=O)c3c(O)cc(O[C@@H]4O[C@H](CO[C@@H]5O[C@@H](C)[C@H](O)[C@@H](O)[C@H]5O)[C@@H](O)[C@H](O)[C@H]4O)cc3O2)cc1O [Hesperidin, hesperidin]",significant absorbance in the lower UVB range below roughly 310 nm
3,"COC(=O)C=Cc1ccccc1 [Methyl cinnamate, methyl cinnamate]",significant absorbance in the lower UVB range below roughly 310 nm
